Each compound was assayed against LRRK2(G2019S mutation, GST-LRRK2(amino acids 970-2527)) (Homo sapiens (Human), UniProt Q5S007, G2019S) (assay: LRRK2 Km ATP LanthaScreen Assay). Conditions: Examples N1-N25.
Format: biochemical
In short: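 TR-FRET: GST-LRRK2 970-2527 G2019S (2.5 nM solution) preincubated 30 min with compound (98 μM top, 1:2.15 dilutions), then 800 nM fluorescein-LRRKtide and 184 μM ATP solution added for 60 min at room temperature in Tris pH 8.5 buffer. Stopped with EDTA and Tb anti-phospho-LRRKtide antibody; IC50 is a mean of several tests.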

LRRK2(G2019S mutation, GST-LRRK2(amino acids 970-2527)), sequence (Q5S007 970-2527 G2019S): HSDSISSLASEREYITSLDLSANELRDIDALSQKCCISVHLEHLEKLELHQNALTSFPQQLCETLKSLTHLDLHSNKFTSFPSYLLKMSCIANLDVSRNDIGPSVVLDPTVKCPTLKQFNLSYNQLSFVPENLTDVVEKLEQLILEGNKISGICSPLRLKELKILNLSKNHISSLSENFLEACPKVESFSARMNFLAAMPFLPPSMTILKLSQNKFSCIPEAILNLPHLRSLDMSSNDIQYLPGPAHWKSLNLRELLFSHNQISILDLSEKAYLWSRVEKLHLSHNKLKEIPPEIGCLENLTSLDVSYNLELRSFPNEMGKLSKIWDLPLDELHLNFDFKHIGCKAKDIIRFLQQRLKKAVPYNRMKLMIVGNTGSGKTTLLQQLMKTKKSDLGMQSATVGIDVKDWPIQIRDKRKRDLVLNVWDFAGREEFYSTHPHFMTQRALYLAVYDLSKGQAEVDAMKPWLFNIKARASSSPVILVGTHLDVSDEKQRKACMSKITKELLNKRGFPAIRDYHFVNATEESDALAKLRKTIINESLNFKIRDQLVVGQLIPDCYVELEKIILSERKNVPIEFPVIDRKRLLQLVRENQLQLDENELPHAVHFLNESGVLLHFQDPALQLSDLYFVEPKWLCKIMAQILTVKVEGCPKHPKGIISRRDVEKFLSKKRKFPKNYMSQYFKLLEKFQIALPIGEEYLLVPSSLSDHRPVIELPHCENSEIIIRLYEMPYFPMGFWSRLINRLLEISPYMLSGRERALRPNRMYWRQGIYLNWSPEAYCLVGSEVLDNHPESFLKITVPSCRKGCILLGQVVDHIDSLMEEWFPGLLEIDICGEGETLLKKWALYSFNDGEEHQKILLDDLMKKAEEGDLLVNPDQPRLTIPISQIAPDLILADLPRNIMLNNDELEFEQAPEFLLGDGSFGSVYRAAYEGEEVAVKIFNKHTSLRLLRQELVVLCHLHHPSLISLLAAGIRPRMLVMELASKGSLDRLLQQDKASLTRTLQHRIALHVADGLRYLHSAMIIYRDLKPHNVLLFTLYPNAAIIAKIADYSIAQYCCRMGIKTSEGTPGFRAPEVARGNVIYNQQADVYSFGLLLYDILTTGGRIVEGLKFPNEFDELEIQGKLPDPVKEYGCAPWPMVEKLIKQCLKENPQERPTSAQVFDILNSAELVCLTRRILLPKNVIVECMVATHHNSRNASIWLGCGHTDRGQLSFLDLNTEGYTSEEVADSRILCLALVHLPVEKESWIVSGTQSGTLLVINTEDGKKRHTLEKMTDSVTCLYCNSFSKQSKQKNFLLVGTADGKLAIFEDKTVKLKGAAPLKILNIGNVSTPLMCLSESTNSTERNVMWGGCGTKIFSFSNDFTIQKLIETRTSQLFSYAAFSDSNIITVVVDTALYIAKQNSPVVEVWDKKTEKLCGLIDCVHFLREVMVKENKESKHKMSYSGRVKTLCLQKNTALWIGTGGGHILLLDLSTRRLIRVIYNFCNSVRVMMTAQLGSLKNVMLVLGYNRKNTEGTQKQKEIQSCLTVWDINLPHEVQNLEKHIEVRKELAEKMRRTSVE

| SMILES | IC50 [nM] |
| --- | --- |
| CC(C)Oc1cc2c(-c3cc(N4CCn5ncnc5C4)ncn3)n[nH]c2cc1F [Example N1] | 7.1 |
| COCC(=O)N1CCN(c2cc(-c3n[nH]c4cc(F)c(OC(C)C)cc34)ncn2)CC1 [Example N2] | 5.6 |
| CC(C)Oc1cc2c(-c3cc(N4CCOC(C(F)(F)F)C4)ncn3)n[nH]c2cc1F (stereo not drawn) [Example N3] | 26.6 |
| CC(C)Oc1cc2c(-c3cc(N4CCN(C5CCS(=O)(=O)C5)CC4)ncn3)n[nH]c2cc1F (stereo not drawn) [Example N4] | 2.5 |
| CC(C)Oc1cc2c(-c3cc(N4CCn5nc(C(F)(F)F)nc5C4C)ncn3)n[nH]c2cc1F (stereo not drawn) [Example N5] | 176 |
| CC(C)Oc1cc2c(-c3cc(N4CC[C@H](CO)C4)ncn3)n[nH]c2cc1F [Example N6] | 10.2 |
| CC(C)Oc1cc2c(-c3cc(N4CC[C@@H](CO)C4)ncn3)n[nH]c2cc1F [Example N7] | 2.9 |
| CC(C)Oc1cc2c(-c3cc(N4CCC(F)(F)C4)ncn3)n[nH]c2cc1F [Example N8] | 6.1 |
| CC(C)Oc1cc2c(-c3cc(N4CC[S+]([O-])CC4)ncn3)n[nH]c2cc1F [Example N9] | 6.1 |
| CC(C)Oc1cc2c(-c3cc(N4CCc5oncc5C4)ncn3)n[nH]c2cc1F [Example N10] | 9.8 |
| CC(C)Oc1cc2c(-c3cc(N4C5CCC4COC5)ncn3)n[nH]c2cc1F [Example N11] | 18.2 |
| COCC1CN(c2cc(-c3n[nH]c4cc(F)c(OC(C)C)cc34)ncn2)CCO1 (stereo not drawn) [Example N12] | 2.9 |
| CC(C)Oc1cc2c(-c3cc(N4CCC(n5cccn5)C4)ncn3)n[nH]c2cc1F (stereo not drawn) [Example N13] | 6.1 |
| Cc1nc2c(o1)CCN(c1cc(-c3n[nH]c4cc(F)c(OC(C)C)cc34)ncn1)C2 [Example N14] | 6.4 |
| CC(C)Oc1cc2c(-c3cc(N4CCOC(C)(C)C4)ncn3)n[nH]c2cc1F [Example N15] | 6.2 |
| CC(C)Oc1cc2c(-c3cc(N4CCC(F)(C#N)CC4)ncn3)n[nH]c2cc1F [Example N16] | 17.7 |
| CO[C@H]1CN(c2cc(-c3n[nH]c4cc(F)c(OC(C)C)cc34)ncn2)C[C@@H]1O [Example N17] | 7.7 |
| CC(C)Oc1cc2c(-c3cc(N4C[C@H](O)[C@@H](N(C)C)C4)ncn3)n[nH]c2cc1F [Example N18] | 7.9 |
| CC(C)Oc1cc2c(-c3cc(N4CCS(=O)(=O)CC4)ncn3)n[nH]c2cc1F [Example N19] | 24 |
| CC(C)Oc1cc2c(-c3cc(N4CCC(F)(CO)CC4)ncn3)n[nH]c2cc1F [Example N20] | 2.3 |
| CCOC(=O)N1CCN(c2cc(-c3n[nH]c4cc(F)c(OC(C)C)cc34)ncn2)CC1 [Example N21] | 6.1 |
| CC(C)Oc1cc2c(-c3cc(N4CC[C@H](N(C)C)C4)ncn3)n[nH]c2cc1F [Example N22] | 7 |
| CC(C)Oc1cc2c(-c3cc(N4CCN(CCCO)CC4)ncn3)n[nH]c2cc1F [Example N23] | 3.1 |
| CC(C)Oc1cc2c(-c3cc(N4[C@H](C)COC[C@H]4C)ncn3)n[nH]c2cc1F [Example N24] | 62.1 |
| CC(C)Oc1cc2c(-c3cc(N4[C@H](C)COC[C@@H]4C)ncn3)n[nH]c2cc1F [Example N25] | 5.4 |

Same assay, conditions: Examples O1-O23

| SMILES | IC50 [nM] |
| --- | --- |
| COC[C@H](C)Oc1ccc2[nH]nc(-c3cc(N4CCn5ncnc5C4)ncn3)c2c1 [Example O1] | 20.2 |
| COC[C@H](C)Oc1ccc2[nH]nc(-c3cc(N4CCOC[C@H]4C)ncn3)c2c1 [Example O2] | 20.2 |
| COC[C@H](C)Oc1ccc2[nH]nc(-c3cc(N4CC[C@@H](CF)C4)ncn3)c2c1 [Example O3] | 2.7 |
| COC[C@H](C)Oc1ccc2[nH]nc(-c3cc(N4CCCC(F)(F)C4)ncn3)c2c1 [Example O4] | 2.8 |
| COC[C@H](C)Oc1ccc2[nH]nc(-c3cc(N4CCOC(C(F)(F)F)C4)ncn3)c2c1 (stereo partly drawn) [Example O5] | 8.6 |
| COC[C@H](C)Oc1ccc2[nH]nc(-c3cc(N4CC[C@H](CO)C4)ncn3)c2c1 [Example O6] | 6 |
| COC[C@H](C)Oc1ccc2[nH]nc(-c3cc(N4CC[C@@H](CO)C4)ncn3)c2c1 [Example O7] | 3.6 |
| COC[C@H](C)Oc1ccc2[nH]nc(-c3cc(N4CCC(F)(F)C4)ncn3)c2c1 [Example O8] | 12.6 |
| COC[C@H](C)Oc1ccc2[nH]nc(-c3cc(N4CCN(C)C(=O)C4)ncn3)c2c1 [Example O9] | 10.9 |
| COC[C@H](C)Oc1ccc2[nH]nc(-c3cc(N4CC(OC)C4)ncn3)c2c1 [Example O10] | 5.6 |
| COC[C@H](C)Oc1ccc2[nH]nc(-c3cc(N4CCN(C5CC5)CC4)ncn3)c2c1 [Example O11] | 4.1 |
| COC[C@H](C)Oc1ccc2[nH]nc(-c3cc(N4C[C@H](F)[C@@H](F)C4)ncn3)c2c1 [Example O12] | 7.9 |
| COCC1CN(c2cc(-c3n[nH]c4ccc(O[C@@H](C)COC)cc34)ncn2)CCO1 (stereo partly drawn) [Example O13] | 3.6 |
| COC[C@H](C)Oc1ccc2[nH]nc(-c3cc(N4CC(F)(F)C4)ncn3)c2c1 [Example O14] | 7.6 |
| COC[C@H](C)Oc1ccc2[nH]nc(-c3cc(N4[C@H](C)COC[C@@H]4C)ncn3)c2c1 [Example O15] | 7.4 |

Same assay, conditions: Km ATP (184 μM ATP solution), G2019S LRRK2, mean IC50

| SMILES | IC50 [nM] |
| --- | --- |
| C[C@H]1CN(c2cc(-c3n[nH]c4ccc(-c5cnn(C)c5)cc34)ncn2)CCO1 [Example M12] | 2.2 |
| Cn1cc(-c2ccc3[nH]nc(-c4cc(N5C[C@H](F)[C@@H](F)C5)ncn4)c3c2)cn1 [Example M13] | 3.8 |
| Cc1nc2c(o1)CCN(c1cc(-c3n[nH]c4ccc(-c5cnn(C)c5)cc34)ncn1)C2 [Example M14] | 2.8 |
| Cn1cc(-c2ccc3[nH]nc(-c4cc(N5CCN6C(=O)OCC6C5)ncn4)c3c2)cn1 (stereo not drawn) [Example M15] | 6.3 |
| Cn1cc(-c2ccc3[nH]nc(-c4cc(N5CCCC6(CCO6)C5)ncn4)c3c2)cn1 (stereo not drawn) [Example M16] | 10.9 |
| CN(C)[C@H]1CN(c2cc(-c3n[nH]c4ccc(-c5cnn(C)c5)cc34)ncn2)C[C@@H]1O [Example M17] | 13.5 |
| Cn1cc(-c2ccc3[nH]nc(-c4cc(N5CCS(=O)(=O)CC5)ncn4)c3c2)cn1 [Example M18] | 22.4 |
| CN(C)[C@H]1CCN(c2cc(-c3n[nH]c4ccc(-c5cnn(C)c5)cc34)ncn2)C1 [Example M19] | 4.6 |
| Cn1cc(-c2ccc3[nH]nc(-c4cc(N5CCOC(C)(C)C5)ncn4)c3c2)cn1 [Example M20] | 8.9 |
| Cn1cc(-c2ccc3[nH]nc(-c4cc(N5CCC(F)(F)CC5)ncn4)c3c2)cn1 [Example M21] | 4.6 |
| Cn1cc(-c2ccc3[nH]nc(-c4cc(N5CCC(n6cccn6)C5)ncn4)c3c2)cn1 (stereo not drawn) [Example M22] | 3.6 |
| CO[C@H]1CN(c2cc(-c3n[nH]c4ccc(-c5cnn(C)c5)cc34)ncn2)C[C@@H]1O [Example M23] | 6 |
| Cn1cc(-c2ccc3[nH]nc(-c4cc(N5CCC(F)(CO)CC5)ncn4)c3c2)cn1 [Example M24] | 2.9 |
| Cn1cc(-c2ccc3[nH]nc(-c4cc(N5CCN(CCCO)CC5)ncn4)c3c2)cn1 [Example M25] | 3 |
| Cn1cc(-c2ccc3[nH]nc(-c4cc(N5CCC(F)(F)C5)ncn4)c3c2)cn1 [Example M26] | 3.7 |
| Cn1cc(-c2ccc3[nH]nc(-c4cc(N5CCC(F)(C#N)CC5)ncn4)c3c2)cn1 [Example M27] | 3 |
| Cn1cc(-c2ccc3[nH]nc(-c4cc(N5CCc6nccnc6C5)ncn4)c3c2)cn1 [Example M28] | 2.7 |

— US9416126B2, “Compounds inhibiting leucine-rich repeat kinase enzyme activity” (Merck Sharp & Dohme Corp., priority 2013, dated 2016)
